In patent publication US20120232062A1, “AZAINDAZOLES TO TREAT FLAVIVIRIDAE VIRUS INFECTION” (EIGER BIOPHARMACEUTICALS, INC., priority 2009, published 2012):
Where two headings read alike, the source gives them in different places.

Tests used:
[1] = test system: HCV genotype 1b; assay: HCV 1b replicon luciferase assay; assay type: cell-based; conditions: Table 1, Huh7 HCV 1b replicon, luciferase reporter, 48 hours, read-out: 1b EC50
Outline: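 Huh7 cells carrying a genotype 1b replicon with stable luciferase reporter, 10k cells/well, were treated 48 h at 37 °C with 10-point 5-fold dilutions from 25 μM (0.1% DMSO), in duplicate. Replication was read as Steady-Glo luminescence.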

[2] = Caco-2 permeability testing; assay type: in vitro ADME, human; conditions: human, 90 min; for Papp A→B at 90 min, 10 µM: read-out: Permeability (second figure of Efflux/permeability), Papp (A-B); for Papp B→A at 90 min, 10 µM: read-out: Efflux (first figure of Efflux/permeability), Papp (B-A)
Source text: Intestinal epithelium permeability is a critical characteristic that determines the rate and extent of human absorption and affects bioavailability of a drug candidate. Poor intestinal permeability leads to limited absorption. Generally, higher absorption is preferred. The Caco-2 cell line is a human colon adeno-carcinoma cell line that resembles the epithelial lining of the human small intestine. Several transport proteins that are expressed in human intestinal epithelium are also expressed in the Caco-2 cell model. Some transporter proteins are efflux systems which mediate the secretion of compounds from inside the cell back to the apical lumen (representative of the intestinal lumen), limiting overall absorption. In a permeability assay, the apparent permeability coefficient is measured between the apical to basolateral sides of a cell monolayer, Papp (A-B), and the basolateral to the apical side, Papp (B-A). Papp (A-B)<2×10^−6 cm/s is predictive of low permeability to the basolateral side, 2×10^−6 cm/s<Papp (A-B)<20×10^−6 cm/s is predictive of medium permeability, and Papp (A-B)>20×10^−6 cm/s is predictive of high permeability. In the B-A permeability assay, Papp (B-A) is measured and compounds evaluated for efflux potential. Together, these assay results are reported as a ratio of Papp (B-A) to Papp (A-B). Papp (B-A)/Papp (A-B)>3 are likely to be transported by one of the efflux systems, and have poor absorption. Papp (B-A)/Papp (A-B)<3 are likely to show reasonable intestinal absorption. An in vitro drug absorption assay suitable for use in predicting intestinal absorption of the compounds useful in the methods of the invention is described in this example. The embodiments of this assay described in this example were developed by Shanghai ChemPartner Co., Ltd., a corporation of China with its principal office located at 720 Cailun Road, Building No. 3, Shanghai 201203, China.
Caco-2 (ATCC, catalog No. HTB-37™) cells are cultured in growth medium (MEM+10% FBS+1% NEAA). The growth medium is prepared by adding 50 mL FBS and 5 mL NEAA to 445 mL of MEM or by adjusting the final volume according to actual needs. Trypsin-EDTA (Invitrogen, Cat #25200-072) is also used.
Hanks Balanced Salt Solution (HBSS, Invitrogen, Cat #14025-092) with 25 mM HEPES, pH 7.4, HBSS buffer with 0.2% DMSO (50 μL DMSO into 25 ml HBSS buffer), and HBSS buffer with 0.4% DMSO (100 μL DMSO into 25 ml HBSS buffer) are used.
10 mM stock solutions of a compound is prepared in DMSO and Lucifer Yellow in assay buffer using the formula (Actual Weight/Molecular Weight)/mL solvent=10 mM. Erythromycin, Metoprolol, and Atenolol are used as reference compounds. Donor solutions (10 μM for compounds and 5 μM for Lucifer Yellow) are prepared. For A-B, 4 μL of 10 mM compound stock solution and 2 μL of 10 mM Lucifer Yellow stock solution are loaded into 4 mL of HBSS buffer, and centrifuged (5 min, 4000 rpm) to precipitate undissolved particles. Supernatants are collected for compound dosing. For B-A, 4 μL (compounds) of 10 mM compound stock solution is added to 4 mL HBSS buffer with 0.2% DMSO, and centrifuged (5 min, 4000 rpm) to precipitate undissolved particles. Supernatants are collected for compound dosing.
Receiver solutions are prepared. For A-B, the solution is HBSS buffer with 0.4% DMSO. For B-A, 2 μL of 10 mM Lucifer Yellow stock solution is added to 4 mL of HBSS buffer with 0.2% DMSO. Compound solutions are prepared for standard curve (3 μM/1 μM/0.2 μM/0.04 μM/0.01 μM/0.005 μM):
1× solution: 3 μL of 20× solution (0.1-60 μM)+57 μL 0.4% DMSO HBSS+60 μL acetonitrile (ACN) with internal standard (IS, 200 ng/mL Osalmid). The assay was performed as described below
Stock cultures are maintained in MEM+10% FBS+1% NEAA, grown in 75 cm^2 tissue culture treated flasks and split (passed) 2 times weekly to maintain desired confluence. For maintenance passage, trypsinized cells are routinely distributed into new flasks at a standard passage ratio of 1:4. […]

| SMILES | EC50 ([1]; Hepatitis C virus, Huh-7, 48 h) [nM] | Papp A→B at 90 min, 10 µM ([2]; Caco-2, pH 7.4, Caco-2, A-B) [×10⁻⁶ cm/s] | Papp B→A at 90 min, 10 µM ([2]; Caco-2, pH 7.4, Caco-2, B-A) [×10⁻⁶ cm/s] | further results |
| --- | --- | --- | --- | --- |
| Cc1ccc(C(=O)Nc2nn(C)c3nc(N4CCCCCC4)ccc23)s1 [compound 841] | 1600 | 9.7 | 1.9 |  |
| O=C(NC1CCNCC1)c1nn(Cc2ccccc2Cl)c2nc(N3CCCCCC3)ccc12 [compound 853] | 2900 |  |  | Papp A→B at 90 min, 10 µM ([2]; pH 7.4, Caco-2, A-B): 0.4 ×10⁻⁶ cm/s; Papp B→A at 90 min, 10 µM ([2]; pH 7.4, Caco-2, B-A): 0.4 ×10⁻⁶ cm/s |
| Cn1nc(C(=O)NC2CCN(S(C)(=O)=O)CC2)c2ccc(N3CCCCCC3)nc21 [compound 1063] |  | 50 | 16 | EC50 [1]: 3900 nM |
| Cn1nc(C(=O)NC2CCN(CC3CCOCC3)CC2)c2ccc(N3CCCCCC3)nc21 [compound 1072] | 2500 | 5.4 | 4.6 |  |
| CCC(CC)Oc1ccc2c(C(=O)NC3CCN(CC4CCCCC4)CC3)nn(C)c2n1 [compound 1074] | 880 | 6.6 | 1.6 |  |
| COc1ccc(CN2CCC(NC(=O)c3nn(C)c4nc(N5CCCCCC5)ccc34)CC2)cc1 [compound 1116] |  | 0.5 | 0.3 | EC50 [1]: 1300 nM |
| Cn1nc(-c2cnc(C(=O)NCc3cccs3)s2)c2ccc(N3CCCCCC3)nc21 [compound 1129] | 830 | 6 | 4 |  |
| Cn1nc(C(=O)NCc2cccs2)c2cc(N3CCCCC3)cnc21 [compound 1146] | 7500 | 22 | 21 |  |
| Cn1nc(C(=O)NC2CCN(CC3CCCCC3)CC2)c2ccc(N3CCCCCCC3)cc21 [compound 1150] | 600 | 1.4 | 5.7 |  |
| Clc1ccc(Cn2nc(COCCN3CCCC3)c3ccc(N4CCCCCCC4)nc32)cc1 [compound 1203] | 3300 | 7.8 | 7.3 |  |
| CCN1CCC(NC(=O)c2nn(C)c3nc(N4CCCCCCC4)ccc23)CC1 [compound 1225] | 1200 | 6.4 | 3.2 |  |
| CN1CCC(NC(=O)c2nn(C)c3nc(N4CCCCCCC4)ccc23)CC1 [compound 1306] | 360 | 9.1 | 4.4 |  |
| CC(C)N1CCC(NC(=O)c2nn(C)c3nc(N4CCCCCCC4)ccc23)CC1 [compound 1307] | 1000 | 9.6 | 4.2 |  |
| CCCC(C)CN1CCC(NC(=O)c2nn(C)c3nc(N4CCCCCCC4)ccc23)CC1 (stereo not drawn) [compound 1308] | 480 | 0.4 | 0.2 |  |
| Cn1nc(C(=O)NC2CCN(CCN3CCCCCC3)CC2)c2ccc(N3CCCCCCC3)nc21 [compound 1310] | 230 | 1.3 | 2.1 |  |
| CC1CCCCN1CCN1CCC(NC(=O)c2nn(C)c3nc(N4CCCCCC4)ccc23)CC1 (stereo not drawn) [compound 1425] | 500 | 3 | 4 |  |
| Cn1nc(CCCN2CC[C@H](O)C2)c2ccc(N3CCCCCCC3)nc21 [compound 1458] | 3200 |  |  |  |
| Cn1nc(CCCN2CCCC(CO)C2)c2ccc(N3CCCCCCC3)nc21 (stereo not drawn) [compound 1460] | 2700 |  |  |  |
| Cn1nc(CCCN2CC=CC2)c2ccc(N3CCCCCCC3)nc21 [compound 1461] | 2600 |  |  |  |
| CC1CCC(C)N1CCCc1nn(C)c2nc(N3CCCCCCC3)ccc12 (stereo not drawn) [compound 1462] | 1200 |  |  |  |
| Cn1nc(CCCN2CCC[C@@H]2CO)c2ccc(N3CCCCCCC3)nc21 [compound 1464] | 2000 |  |  |  |
| COC[C@@H]1CCCN1CCCc1nn(C)c2nc(N3CCCCCCC3)ccc12 [compound 1465] | 4700 |  |  |  |

| SMILES | EC50 ([1]; Hepatitis C virus, Huh-7, 48 h) [nM] | Papp A→B at 90 min, 10 µM ([2]; Caco-2, pH 7.4, Caco-2, A-B) [×10⁻⁶ cm/s] | Papp B→A at 90 min, 10 µM ([2]; Caco-2, pH 7.4, Caco-2, B-A) [×10⁻⁶ cm/s] | further results |
| --- | --- | --- | --- | --- |
| Cn1nc(C(=O)NC2CCN(CCN3CCCCC3)CC2)c2ccc(NC3CCCCCCC3)nc21 [compound 1468] | 330 |  |  |  |
| Cn1nc(C(=O)NC2CCN(CCN3CCCC3)CC2)c2ccc(NC3CCCCCCC3)nc21 [compound 1469] | 250 | 0.9 | 2.9 |  |
| Cn1nc(C(=O)NC2CCN(CC(F)F)CC2)c2ccc(NC3CCCCCCC3)nc21 [compound 1472] | 1400 |  |  |  |
| CC(C)CN1CCC(NC(=O)c2nn(C)c3nc(NC4CCCCCCC4)ccc23)CC1 [compound 1473] | 890 |  |  |  |
| CCN1CCC(NC(=O)c2nn(C)c3nc(NC4CCCCCCC4)ccc23)CC1 [compound 1474] | 480 |  |  |  |
| Cn1nc(C(=O)NC2CCN(CC3CCOCC3)CC2)c2ccc(NC3CCCCCCC3)nc21 [compound 1476] | 570 |  |  |  |
| Cn1nc(C(=O)NC2CCN(CC3CCCCC3)CC2)c2ccc(NC3CCCCCCC3)nc21 [compound 1477] |  |  |  | EC50 [1]: 530 nM |
| Cn1nc(C(=O)NC2CCN(CC3CC3)CC2)c2ccc(NC3CCCCCCC3)nc21 [compound 1478] | 560 |  |  |  |
| Cn1nc(C(=O)NC2CCN(CC#N)CC2)c2ccc(NC3CCCCCCC3)nc21 [compound 1479] | 920 |  |  |  |
| CCCn1nc(C(=O)NC2CCN(CCN3CCCCC3)CC2)c2ccc(N3CCCCCC3)nc21 [compound 1486] | 760 |  |  |  |
| CC(C)Cn1nc(C(=O)NC2CCN(CCN3CCCCC3)CC2)c2ccc(N3CCCCCC3)nc21 [compound 1487] | 830 |  |  |  |
| O=C(NC1CCN(CCN2CCCCC2)CC1)c1nn(CC2CC2)c2nc(N3CCCCCC3)ccc12 [compound 1489] | 550 |  |  |  |
| Cn1nc(CCCN2C[C@@H](O)[C@@H](O)C2)c2ccc(N3CCCCCCC3)nc21 [compound 1495] | 4700 |  |  |  |
| C[C@@H]1CCCN1CCCc1nn(C)c2nc(N3CCCCCCC3)ccc12 [compound 1499] | 4000 |  |  |  |
| COC[C@@H]1CCCN1CCN1CCC(NC(=O)c2nn(C)c3nc(N4CCCCCC4)ccc23)CC1 [compound 1556] | 2900 |  |  |  |
| COCC1CCN(CCN2CCC(NC(=O)c3nn(C)c4nc(N5CCCCCC5)ccc34)CC2)C1 (stereo not drawn) [compound 1557] | 2100 |  |  |  |
| Cn1nc(C(=O)NC2CCN(CCN3CC[C@@H](O)C3)CC2)c2ccc(N3CCCCCC3)nc21 [compound 1558] | 3400 |  |  |  |
| Cn1nc(C(=O)NC2CCN(CCN3CCC[C@H]3CO)CC2)c2ccc(N3CCCCCC3)nc21 [compound 1561] | 3800 |  |  |  |
| Cn1nc(C(=O)NC2CCN(CCN3CCCC3)CC2)c2ccc(NC3CCCCC3)nc21 [compound 1581] | 3300 |  |  |  |
| Cn1nc(C(=O)NC2CCN(C3CCCCC3)CC2)c2ccc(N3CCCCCC3)nc21 [compound 1594] | 1800 |  |  |  |
| CCCN1CCC(NC(=O)c2nn(C)c3nc(N4CCCCCC4)ccc23)CC1 [compound 1596] | 1400 |  |  |  |
| Cn1nc(C(=O)NC2CCN(CCO)CC2)c2ccc(N3CCCCCC3)nc21 [compound 1598] | 2700 |  |  |  |
